In brackets after ≈: the same amount, converted by molar mass.
Experiments:
Staphylococcus aureus [1] = test: microbe, parasite or virus in culture; assay type: functional; settings: ATCC 43300
Description: Antimicrobial activity against methicillin-sensitive Staphylococcus aureus ATCC 43300 by microdilution plate based method

Candida albicans = test: Antimicrobial activity against Candida albicans ATCC 90028 by microdilution plate based method; assay type: functional
Escherichia coli [2] = test: Antimicrobial activity against Escherichia coli ATCC 25922 by microdilution plate based method; assay type: functional
Cryptococcus neoformans = test: Antimicrobial activity against Cryptococcus neoformans ATCC 208821 by microdilution plate based method; assay type: functional
[3] = Drug metabolism assessed as compound auto-oxidation; assay type: physicochemical
HepG2 = test: Cytotoxicity against human HepG2 cells assessed as reduction in cell viability incubated for 24 hrs by resazurin based assay; assay type: functional; settings: HepG2, 24 h
Staphylococcus aureus [4] = test: Antimicrobial activity against glycopeptide intermediate resistant Staphylococcus aureus NARSA NRS 17 by microdilution plate based method; assay type: functional
Staphylococcus aureus [5] = test: Antimicrobial activity against vancomycin-resistant Staphylococcus aureus NARSA VRS 1 by microdilution plate based method; assay type: functional
[6] = Cytotoxicity against HEK293 cells assessed as reduction in cell viability incubated for 24 hrs by resazurin based assay; settings: human
Acinetobacter baumannii = test: Antimicrobial activity against Acinetobacter baumannii ATCC 19606 by microdilution plate based method; assay type: functional; settings: ATCC 19606 = CIP 70.34 = JCM 6841
Streptococcus pneumoniae = test: Antimicrobial activity against multidrug resistant Streptococcus pneumoniae ATCC 700677 by microdilution plate based method; assay type: functional
Enterococcus faecium = test: Antimicrobial activity against vancomycin-resistant and VanA expressing Enterococcus faecium ATCC 51559 by microdilution plate based method; assay type: functional
Escherichia coli [7] = test: Antimicrobial activity against Escherichia coli; assay type: functional
Staphylococcus aureus [8] = test: Antimicrobial activity against Staphylococcus aureus; assay type: functional
MRC5 = test: Cytotoxicity against human MRC5 cells; assay type: cell-based
[9] = system: Trypanosoma brucei brucei; test: Antitrypanosomal activity against Trypanosoma brucei brucei GUTat 3.1 incubated for 72 hrs by alamar blue dye based assay; assay type: functional, organism-based; settings: GUTat 3.1, 72 h

| Structure (SMILES) | MIC (Staphylococcus aureus [1]) [µg/mL] | MIC (Candida albicans) [µg/mL] | MIC (Escherichia coli [2]) [µg/mL] | MIC (Cryptococcus neoformans) [µg/mL] | CC50 (HepG2) [µM] | MIC (Staphylococcus aureus [4]) [µg/mL] | MIC (Staphylococcus aureus [5]) [µg/mL] | CC50 at 24 h [6] [µM] | MIC (Acinetobacter baumannii) [µg/mL] | MIC (Streptococcus pneumoniae) [µg/mL] | MIC (Enterococcus faecium) [µg/mL] | other results |
| --- | --- | --- | --- | --- | --- | --- | --- | --- | --- | --- | --- | --- |
| COc1cc(/C=C/C(=O)OC/C=C(/C)CCC=C(C)C)ccc1O | 16 (≈ 48.4 µM) | > 64 | > 64 | 32 to 64 (≈ 96.8 to 194 µM) | 300 | 16 (≈ 48.4 µM) | 16 to 32 (≈ 48.4 to 96.8 µM) | 273 | > 64 | 8 to 16 (≈ 24.2 to 48.4 µM) | 8 (≈ 24.2 µM) | Drug metabolism [3]: Metabolite_Detected |
| CC(C)=CCC/C(C)=C/COC(=O)/C=C/c1ccccc1 | – | – | – | – | – | – | – | – | – | – | – | MIC (Escherichia coli [7]): 5000 µg/mL (≈ 17600 µM); MIC (Staphylococcus aureus [8]): 5000 µg/mL (≈ 17600 µM) |
| CC(C)=CCC/C(C)=C\COC(=O)/C=C/c1ccc(O)cc1 | > 64 | > 64 | > 64 | 32 to 64 (≈ 107 to 213 µM) | 157 | > 64 | > 64 | 273 | > 64 | 64 (≈ 213 µM) | 8 (≈ 26.6 µM) | Drug metabolism [3]: Metabolite_Detected |
| CC[C@H](C)CCCCC(=O)N[C@@H](CCN)C(=O)N[C@H](C(=O)N[C@@H](CCN)C(=O)N[C@H]1CCNC(=O)[C@H]([C@@H](C)O)NC(=O)[C@H](CCN)NC(=O)[C@H](CCN)NC(=O)[C@H](CC(C)C)NC(=O)[C@@H](Cc2ccccc2)NC(=O)[C@H](CCN)NC1=O)[C@@H](C)O.O=S(=O)(O)O.O=S(=O)(O)O | – | – | 0.3 | – | – | – | – | – | 0.3 | – | – | – |
| CCCCCCCCCC(=O)N[C@@H](Cc1c[nH]c2ccccc12)C(=O)N[C@@H](CC(N)=O)C(=O)N[C@@H](CC(=O)O)C(=O)N[C@@H]1C(=O)NCC(=O)N[C@@H](CCCN)C(=O)N[C@@H](CC(=O)O)C(=O)N[C@H](C)C(=O)N[C@@H](CC(=O)O)C(=O)NCC(=O)N[C@H](CO)C(=O)N[C@@H]([C@H](C)CC(=O)O)C(=O)N[C@@H](CC(=O)c2ccccc2N)C(=O)O[C@@H]1C [DAPTOMYCIN] | 4 (≈ 2.47 µM) | – | – | – | – | 16 to 32 (≈ 9.87 to 19.7 µM) | 8 (≈ 4.94 µM) | – | – | 8 (≈ 4.94 µM) | 32 (≈ 19.7 µM) | – |
| CC(C)=CCC/C(C)=C\CC/C(C)=C\COC(=O)/C=C/c1ccc(O)c(O)c1 [FARNESYL CAFFEATE] | – | – | – | – | – | – | – | – | – | – | – | IC50 (MRC5): 13.3 µg/mL (≈ 34.6 µM); IC50 [9]: 0.23 µg/mL (≈ 0.598 µM) |
| OC(Cn1cncn1)(Cn1cncn1)c1ccc(F)cc1F [FLUCONAZOLE] | – | 0.3 to 0.5 (≈ 0.98 to 1.63 µM) | – | 8 (≈ 26.1 µM) | – | – | – | – | – | – | – | – |
| CN[C@H](CC(C)C)C(=O)N[C@H]1C(=O)N[C@@H](CC(N)=O)C(=O)N[C@H]2C(=O)N[C@H]3C(=O)N[C@H](C(=O)N[C@H](C(=O)O)c4cc(O)cc(O)c4-c4cc3ccc4O)[C@H](O)c3ccc(c(Cl)c3)Oc3cc2cc(c3O[C@@H]2O[C@H](CO)[C@@H](O)[C@H](O)[C@H]2O[C@H]2C[C@](C)(N)[C@H](O)[C@H](C)O2)Oc2ccc(cc2Cl)[C@H]1O.Cl [VANCOMYCIN HYDROCHLORIDE] | – | – | – | – | – | > 32 | > 32 | – | – | 2 | > 32 | – |

Source: ChEMBL document CHEMBL4177532, “Antibacterial Nerol Cinnamates from the Australian Plant Eremophila longifolia” (J Nat Prod, 2017)
